Measurements taken from publication PMC10401832 (Biotechnology for Biofuels and Bioproducts, 2023).

Key:
GsAlaDH = molecular target: T1, GsAlaDH (Geobacillus stearothermophilus, UniProt P17557); assay: spectrophotometric NADH change at […] nm; type: biochemical; settings: oxidative deamination, NAD+, Na2CO3-NaHCO3 pH 10.0; Table 1 heads this block 'Reductive reaction' but text assigns it to L-alanine
T1 construct: gene ald; possible hexamer (model)

purified protein = substrate: CC(=O)C(=O)O; assay: purified protein; type: biochemical, Bacillus subtilis; settings: reductive amination, NADH and NH4Cl, Tris-HCl pH 8.0, Table 1 heads this block 'Oxidative reaction' but text assigns it to pyruvate

T1 sequence (P17557 whole entry): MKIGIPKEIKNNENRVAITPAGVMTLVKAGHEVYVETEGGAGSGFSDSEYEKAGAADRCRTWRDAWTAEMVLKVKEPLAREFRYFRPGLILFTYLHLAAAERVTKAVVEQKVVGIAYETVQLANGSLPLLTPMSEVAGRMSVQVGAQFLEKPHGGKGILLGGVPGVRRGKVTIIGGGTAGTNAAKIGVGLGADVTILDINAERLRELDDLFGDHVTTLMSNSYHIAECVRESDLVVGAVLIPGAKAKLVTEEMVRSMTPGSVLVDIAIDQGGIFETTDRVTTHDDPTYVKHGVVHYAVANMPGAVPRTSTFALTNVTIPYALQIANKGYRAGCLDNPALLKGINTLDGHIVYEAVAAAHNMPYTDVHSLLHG

Molecule | Km (GsAlaDH) [µM] | Km (purified protein) [µM]
C[C@H](N)C(=O)O [L-alanine] | 810 ± 250 | 
BsAlaDH (Bacillus subtilis subsp. subtilis str. 168) (protein, primers imply N-term MIIGVP, C-term SVAGA; about 45-55 kDa; possible hexamer (model)) MIIGVPKEIKNNENRVALTPGGVSQLISNGHRVLVETGAGLGSGFENEAYESAGAEIIADPKQVWDAEMVMKVKEPLPEEYVYFRKGLVLFTYLHLAAEPELAQALKDKGVTAIAYETVSEGRTLPLLTPMSEVAGRMAAQIGAQFLEKPKGGKGILLAGVPGVSRGKVTIIGGGVVGTNAAKMAVGLGADVTIIDLNADRLRQLDDIFGHQIKTLISNPVNIADAVAEADLLICAVLIPGAKAPTLVTEEMVKQMKPGSVIVDVAIDQGGIVETVDHITTHDQPTYEKHGVVHYAVANMPGAVPRTSTIALTNVTVPYALQIANKGAVKALADNTALRAGLNTANGHVTYEAVARDLGYEYVPAEKALQDESSVAGA |  | 70 ± 30
